Laboratory results reported in patent US11702429B2, “mTORC modulators and uses thereof” (Aeovian Pharmaceuticals, Inc., priority 2019, dated 2023).

Experiments:
mTORC1 = biological target: T1, mTORC1 (Homo sapiens, UniProt P42345+P62942); assay: Inhibition assay for mTORC1: phosphorylation of pS6K at Thr389, AlphaLISA in PC3 cells; assay type: cell-based; conditions: read-out: pIC50 mTORC1 (converted)
T1 construct: endogenous in cells; host or cells: PC3 cells (human prostate adenocarcinoma)

mTORC2 = biological target: T2, mTORC2 (Homo sapiens, UniProt P42345+P62942); assay: Inhibition assay for mTORC2: phosphorylation of pAkt at Ser473, AlphaLISA in PC3 cells; assay type: cell-based; conditions: read-out: pIC50 mTORC2 (converted)
T2 construct: endogenous in cells; host or cells: PC3 cells (human prostate adenocarcinoma)
T2 sequence (P62942 2-108 limits assumed, other chains not shown): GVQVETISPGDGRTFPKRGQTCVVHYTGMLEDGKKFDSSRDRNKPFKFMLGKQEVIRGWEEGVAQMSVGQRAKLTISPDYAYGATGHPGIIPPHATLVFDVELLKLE

SMILES | IC50 (mTORC1) | IC50 (mTORC2)
CO[C@@H]1C[C@H](C[C@@H](C)[C@@H]2CC(=O)[C@H](C)/C=C(\C)[C@@H](O)[C@@H](OC)C(=O)[C@H](C)C[C@H](C)/C=C/C=C/C=C(\C)C(OCC3CCOCC3)C[C@@H]3CC[C@@H](C)[C@@](O)(O3)C(=O)C(=O)N3CCCCC3C(=O)O2)CC[C@H]1O (stereo partly shown) [Compound 226] | 0.000316 to 0.00316 µM | > 10 µM
COC1CC2CCC(C)C(O)(O2)C(=O)C(=O)N2CCCCC2C(=O)OC(C(C)CC2CCC(OCCc3ccccc3)C(OC)C2)CC(=O)C(C)C=C(C)C(O)C(OC)C(=O)C(C)CC(C)C=CC=CC=C1C (stereo not shown) [Compound 348] | < 0.000316 µM | < 1 µM
CO[C@@H]1C[C@H](C[C@@H](C)[C@@H]2CC(=O)[C@H](C)/C=C(\C)[C@@H](O)[C@@H](OC)C(=O)[C@H](C)C[C@H](C)/C=C/C=C/C=C(\C)C(OC[C@@H](O)c3ccccc3)C[C@@H]3CC[C@@H](C)[C@@](O)(O3)C(=O)C(=O)N3CCCCC3C(=O)O2)CC[C@H]1O (stereo partly shown) [Compound 217] | < 0.000316 µM | 1 to 10 µM
COC1C[C@@H]2CC[C@@H](C)[C@@](O)(O2)C(=O)C(=O)N2CCCCC2C(=O)O[C@H]([C@H](C)C[C@@H]2CC[C@@H](OCCCN3CCC(O)CC3)[C@H](OC)C2)CC(=O)[C@H](C)/C=C(\C)[C@@H](O)[C@@H](OC)C(=O)[C@H](C)C[C@H](C)/C=C/C=C/C=C/1C (stereo partly shown) [Compound 368] | < 0.000316 µM | < 1 µM
COC1C[C@@H]2CC[C@@H](C)[C@@](O)(O2)C(=O)C(=O)N2CCCCC2C(=O)O[C@H]([C@H](C)C[C@@H]2CC[C@@H](OC(=O)NCCC3CC3)[C@H](OC)C2)CC(=O)[C@H](C)/C=C(\C)[C@@H](O)[C@@H](OC)C(=O)[C@H](C)C[C@H](C)/C=C/C=C/C=C/1C (stereo partly shown) [Compound 337] | < 0.000316 µM | < 1 µM
COC1C[C@@H]2CC[C@@H](C)[C@@](O)(O2)C(=O)C(=O)N2CCCCC2C(=O)O[C@H]([C@H](C)C[C@@H]2CC[C@@H](OC(=O)NCCN3CCN(C)CC3)[C@H](OC)C2)CC(=O)[C@H](C)/C=C(\C)[C@@H](O)[C@@H](OC)C(=O)[C@H](C)C[C@H](C)/C=C/C=C/C=C/1C (stereo partly shown) [Compound 367] | < 0.000316 µM | < 1 µM
COC1C[C@@H]2CC[C@@H](C)[C@@](O)(O2)C(=O)C(=O)N2CCCCC2C(=O)O[C@H]([C@H](C)C[C@@H]2CC[C@@H](OC(=O)NC3C(O)O[C@H](CO)[C@@H](O)[C@@H]3O)[C@H](OC)C2)CC(=O)[C@H](C)/C=C(\C)[C@@H](O)[C@@H](OC)C(=O)[C@H](C)C[C@H](C)/C=C/C=C/C=C/1C (stereo partly shown) [Compound 361] | > 0.00316 µM | < 1 µM
COCCOCCNC(=O)O[C@@H]1CC[C@@H](C[C@@H](C)[C@@H]2CC(=O)[C@H](C)/C=C(\C)[C@@H](O)[C@@H](OC)C(=O)[C@H](C)C[C@H](C)/C=C/C=C/C=C(\C)C(OC)C[C@@H]3CC[C@@H](C)[C@@](O)(O3)C(=O)C(=O)N3CCCCC3C(=O)O2)C[C@H]1OC (stereo partly shown) [Compound 346] | < 0.000316 µM | < 1 µM
CO[C@@H]1C[C@H](C[C@@H](C)[C@@H]2CC(=O)[C@H](C)/C=C(\C)[C@@H](O)[C@@H](OC)C(=O)[C@H](C)C[C@H](C)/C=C/C=C/C=C(\C)C(OC[C@H](O)c3ccccc3)C[C@@H]3CC[C@@H](C)[C@@](O)(O3)C(=O)C(=O)N3CCCCC3C(=O)O2)CC[C@H]1O (stereo partly shown) [Compound 214] | < 0.000316 µM | 1 to 10 µM
COC1CC2CCC(C)C(O)(O2)C(=O)C(=O)N2CCCCC2C(=O)OC(C(C)CC2CCC(O[Si](C)(C)C(C)(C)C)C(OC)C2)CC(=O)C(C)C=C(C)C(O)C(OC)C(=O)C(C)CC(C)C=CC=CC=C1C (stereo not shown) [Compound 302] | > 0.00316 µM | 1 to 10 µM
COC1C[C@@H]2CC[C@@H](C)[C@@](O)(O2)C(=O)C(=O)N2CCCCC2C(=O)O[C@H]([C@H](C)C[C@@H]2CC[C@@H](OC(=O)NCCn3cnnn3)[C@H](OC)C2)CC(=O)[C@H](C)/C=C(\C)[C@@H](O)[C@@H](OC)C(=O)[C@H](C)C[C@H](C)/C=C/C=C/C=C/1C (stereo partly shown) [Compound 312] | < 0.000316 µM | < 1 µM
CO[C@@H]1C[C@H](C[C@@H](C)[C@@H]2CC(=O)[C@H](C)/C=C(\C)[C@@H](O)[C@@H](OC)C(=O)[C@H](C)C[C@H](C)/C=C/C=C/C=C(\C)C(OCc3ccccc3)C[C@@H]3CC[C@@H](C)[C@@](O)(O3)C(=O)C(=O)N3CCCCC3C(=O)O2)CC[C@H]1O (stereo partly shown) [Compound 205] | < 0.000316 µM | < 1 µM
COC1C[C@@H]2CC[C@@H](C)[C@@](O)(O2)C(=O)C(=O)N2CCCCC2C(=O)O[C@H]([C@H](C)C[C@@H]2CC[C@@H](OC(=O)N(C)CCO)[C@H](OC)C2)CC(=O)[C@H](C)/C=C(\C)[C@@H](O)[C@@H](OC)C(=O)[C@H](C)C[C@H](C)/C=C/C=C/C=C/1C (stereo partly shown) [Compound 313] | < 0.000316 µM | < 1 µM

Results, then the compound that gave them:

IC50 (mTORC1) | IC50 (mTORC2) | SMILES
< 0.000316 µM | < 1 µM | COCO[C@@H]1CC[C@@H](C[C@@H](C)[C@@H]2CC(=O)[C@H](C)/C=C(\C)[C@@H](O)[C@@H](OC)C(=O)[C@H](C)C[C@H](C)/C=C/C=C/C=C(\C)C(OC)C[C@@H]3CC[C@@H](C)[C@@](O)(O3)C(=O)C(=O)N3CCCCC3C(=O)O2)C[C@H]1OC (stereo partly shown) [Compound 301]
0.000316 to 0.00316 µM | 1 to 10 µM | CO[C@@H]1C[C@H](C[C@@H](C)[C@@H]2CC(=O)[C@H](C)/C=C(\C)[C@@H](O)[C@@H](OC)C(=O)[C@H](C)C[C@H](C)/C=C/C=C/C=C(\C)C(OCC(C)(C)O)C[C@@H]3CC[C@@H](C)[C@@](O)(O3)C(=O)C(=O)N3CCCCC3C(=O)O2)CC[C@H]1O (stereo partly shown) [Compound 216]
< 0.000316 µM | 1 to 10 µM | COCCCOC1C[C@@H]2CC[C@@H](C)[C@@](O)(O2)C(=O)C(=O)N2CCCCC2C(=O)O[C@H]([C@H](C)C[C@@H]2CC[C@@H](O)[C@H](OC)C2)CC(=O)[C@H](C)/C=C(\C)[C@@H](O)[C@@H](OC)C(=O)[C@H](C)C[C@H](C)/C=C/C=C/C=C/1C (stereo partly shown) [Compound 225]
< 0.000316 µM | < 1 µM | COCCO[C@@H]1CC[C@@H](C[C@@H](C)[C@@H]2CC(=O)[C@H](C)/C=C(\C)[C@@H](O)[C@@H](OC)C(=O)[C@H](C)C[C@H](C)/C=C/C=C/C=C(\C)C(OC)C[C@@H]3CC[C@@H](C)[C@@](O)(O3)C(=O)C(=O)N3CCCCC3C(=O)O2)C[C@H]1OC (stereo partly drawn) [Compound 315, (1R,9S,12S,15R,16E,18R,19R,21R,23S,24E,26E,28E,30S,32S,35R)-1,18-dihydroxy-19,30-dimethoxy-12-[(1R)-2-[(1S,3R,4R)-3-methoxy-4-(2-methoxyethoxy)cyclohexyl]-1-methyl-ethyl]-15,17,21,23,29,35-hexamethyl-11,36-dioxa-4-azatricyclo[30.3.1.0^4,9]hexatriaconta-16,24,26,28-tetraene-2,3,10,14,20-pentone]
0.000316 to 0.00316 µM | 1 to 10 µM | CO[C@@H]1C[C@H](C[C@@H](C)[C@@H]2CC(=O)[C@H](C)/C=C(\C)[C@@H](O)[C@@H](OC)C(=O)[C@H](C)C[C@H](C)/C=C/C=C/C=C(\C)C(OC(C)C)C[C@@H]3CC[C@@H](C)[C@@](O)(O3)C(=O)C(=O)N3CCCCC3C(=O)O2)CC[C@H]1O (stereo partly drawn) [Compound 208, (1R,9S,12S,15R,16E,18R,19R,21R,23S,24E,26E,28E,32S,35R)-1,18-dihydroxy-12-[(1R)-2-[(1S,3R,4R)-4-hydroxy-3-methoxy-cyclohexyl]-1-methyl-ethyl]-30-isopropoxy-19-methoxy-15,17,21,23,29,35-hexamethyl-11,36-dioxa-4-azatricyclo[30.3.1.0^4,9]hexatriaconta-16,24,26,28-tetraene-2,3,10,14,20-pentone]
< 0.000316 µM | < 1 µM | COCCCO[C@@H]1CC[C@@H](C[C@@H](C)[C@@H]2CC(=O)[C@H](C)/C=C(\C)[C@@H](O)[C@@H](OC)C(=O)[C@H](C)C[C@H](C)/C=C/C=C/C=C(\C)C(OC)C[C@@H]3CC[C@@H](C)[C@@](O)(O3)C(=O)C(=O)N3CCCCC3C(=O)O2)C[C@H]1OC (stereo partly drawn) [Compound 308, (1R,9S,12S,15R,16E,18R,19R,21R,23S,24E,26E,28E,30S,32S,35R)-1,18-dihydroxy-19,30-dimethoxy-12-[(1R)-2-[(1S,3R,4R)-3-methoxy-4-(3-methoxypropoxy)cyclohexyl]-1-methyl-ethyl]-15,17,21,23,29,35-hexamethyl-11,36-dioxa-4-azatricyclo[30.3.1.0^4,9]hexatriaconta-16,24,26,28-tetraene-2,3,10,14,20-pentone]
< 0.000316 µM | > 10 µM | COCCOCCOC1C[C@@H]2CC[C@@H](C)[C@@](O)(O2)C(=O)C(=O)N2CCCCC2C(=O)O[C@H]([C@H](C)C[C@@H]2CC[C@@H](O)[C@H](OC)C2)CC(=O)[C@H](C)/C=C(\C)[C@@H](O)[C@@H](OC)C(=O)[C@H](C)C[C@H](C)/C=C/C=C/C=C/1C (stereo partly shown) [Compound 227]
0.000316 to 0.00316 µM | > 10 µM | CO[C@@H]1C[C@H](C[C@@H](C)[C@@H]2CC(=O)[C@H](C)/C=C(\C)[C@@H](O)[C@@H](OC)C(=O)[C@H](C)C[C@H](C)/C=C/C=C/C=C(\C)C(OCCO)C[C@@H]3CC[C@@H](C)[C@@](O)(O3)C(=O)C(=O)N3CCCCC3C(=O)O2)CC[C@H]1O (stereo partly drawn) [Compound 219, (1R,9S,12S,15R,16E,18R,19R,21R,23S,24E,26E,28E,32S,35R)-1,18-dihydroxy-30-(2-hydroxyethoxy)-12-[(1R)-2-[(1S,3R,4R)-4-hydroxy-3-methoxy-cyclohexyl]-1-methyl-ethyl]-19-methoxy-15,17,21,23,29,35-hexamethyl-11,36-dioxa-4-azatricyclo[30.3.1.0^4,9]hexatriaconta-16,24,26,28-tetraene-2,3,10,14,20-pentone]
0.000316 to 0.00316 µM | 1 to 10 µM | CO[C@@H]1C[C@H](C[C@@H](C)[C@@H]2CC(=O)[C@H](C)/C=C(\C)[C@@H](O)[C@@H](OC)C(=O)[C@H](C)C[C@H](C)/C=C/C=C/C=C(\C)C(OCCC3CCOCC3)C[C@@H]3CC[C@@H](C)[C@@](O)(O3)C(=O)C(=O)N3CCCCC3C(=O)O2)CC[C@H]1O (stereo partly shown) [Compound 213]
0.000316 to 0.00316 µM | > 10 µM | CO[C@@H]1C[C@H](C[C@@H](C)[C@@H]2CC(=O)[C@H](C)/C=C(\C)[C@@H](O)[C@@H](OC)C(=O)[C@H](C)C[C@H](C)/C=C/C=C/C=C(\C)C(OC3COC3)C[C@@H]3CC[C@@H](C)[C@@](O)(O3)C(=O)C(=O)N3CCCCC3C(=O)O2)CC[C@H]1O (stereo partly shown) [Compound 218]
